This is an account of results in US9095524B2, “Customized compositions and uses thereof” (Bond University Ltd., priority 2011, dated 2015).

The subject of the experiment is HMSCs. Description: Calcium deposition (osteogenic differentiation) with purmorphamine. The following applies: 2 μM purmorphamine added directly into differentiation media, hMSCs on polystyrene culture plate (PS). The experiment is classed as cell-based, human.

As for `c1ccc2c(Oc3nc(Nc4ccc(N5CCOCC5)cc4)c4ncn(C5CCCCC5)c4n3)cccc2c1` [purmorphamine], the calcium deposition entry was “significant increase in calcium deposition”.
